Measurements published in patent publication US20260297121A1, “MITHRAMYCIN (MTM) 2’ OXIMES” (University of Kentucky Research Foundation, priority 2023, published 2026).
Like-named read-outs stand apart in the source and are kept apart here.

Experiments:
PC3 [1] = test: IC50 in PC3 cells; format: cell-based; conditions: Homo sapiens, PC-3, read-out: IC50 PC2, Table 2; head prints PC2, text PC3
HepG2 = test: Cytotoxicity, resazurin fluorescence, HepG2; format: cell-based; conditions: Homo sapiens, read-out: GI50 HepG2
PC3 [2] = test: Cytotoxicity, resazurin fluorescence, PC3; format: cell-based; conditions: Homo sapiens, PC-3, 72 h
Description: (§1) Exemplary compounds of the presently-disclosed subject matter were assessed for cytotoxicity (Table 5) in Ewing sarcoma (TC32) and non-Ewing (PC3 prostate cancer). […] Cells (1000-5000/well) were seeded in 96-well plates and allowed to attach and grow for 24 hr prior to adding compounds in half-log increments from 0.3 nM-10 μM. Cell viability was assessed after 72 hr continuous incubation with compounds using resazurin fluorescence. GI50 values were estimated using GraphPad Prism.

5838 = test: Cytotoxicity, resazurin fluorescence, 5838; format: cell-based; conditions: Table 6; 72 hr; express EWS-ERG
BL1395 = test: Cytotoxicity, resazurin fluorescence, BL1395; format: cell-based; conditions: read-out: GI50 BL1395
DU145 = test: Cytotoxicity, resazurin fluorescence, DU145; format: cell-based; conditions: Homo sapiens, read-out: GI50 DU145
TC71 = test: Cytotoxicity, resazurin fluorescence, TC71; format: cell-based; conditions: Homo sapiens, TC-71; Table 6; 72 hr; EWS cells
[3] = Clearance (CL) / pharmacokinetics; format: in vivo, mice; conditions: mouse, plasma, iv; Table 2
Description: Exemplary compounds of the presently-disclosed subject matter were assessed for activity, including clearance, potency, and selectivity. Results from studies are compiled in Tables 2-4.
Desirable clearance was identified at lower values of mL hr^−1kg^−1 (e.g., about ≤10 mL hr^−1 kg^−1), desirable potency was identified at lower values of IC50 (e.g., about ≤10 nM in TC32 cells), and desired selectivity was identified at higher ratios of IC50 in PC3/IC50 in TC32 (e.g. about >10).
Pharmacokinetics of exemplary compounds of the presently-disclosed subject matter were studied in mice following bolus IV dosing. Groups of three mice were administered the compound(s) and blood samples were collected via saphenous bleed. Plasma was separated by centrifugation and extracted to quantitate analytes by LC/MS/MS. Sample analysis followed upon the system meeting system suitability criteria customary for fit for purpose analytical methods. FIG. 1A includes data comparing YL-C09 to mithramycin (MTM) dosed separately. FIG. 1B includes data for YL-B171, YL-C110 and MTM dosed in cassette format.

log P = format: physicochemical; conditions: Table 2
EWS cells = test: Cytotoxicity, average over Ewing (EWS) cell panel; format: cell-based; conditions: Table 6; 72 hr; average of EWS cells
Description: as §1

SK.ES1 = test: Cytotoxicity, resazurin fluorescence, SK.ES1; format: cell-based; conditions: Homo sapiens, SK-ES1; Table 6; 72 hr; EWS cells
ES3 = test: Cytotoxicity, resazurin fluorescence, ES3; format: cell-based; conditions: Table 6; 72 hr; EWS cells
RDES = test: Cytotoxicity, resazurin fluorescence, RDES; format: cell-based; conditions: RD-ES; Table 6; 72 hr; EWS cells
PANC1 = test: Cytotoxicity, resazurin fluorescence, PANC1; format: cell-based; conditions: Homo sapiens, read-out: GI50 PANC1
ES8 = test: Cytotoxicity, resazurin fluorescence, ES8; format: cell-based; conditions: Homo sapiens, ES8; Table 6; 72 hr; EWS cells
ES7 = test: Cytotoxicity, resazurin fluorescence, ES7; format: cell-based; conditions: Homo sapiens, ES7; Table 6; 72 hr; EWS cells
TC32 cells = test: Potency IC50 in TC32 cells and selectivity; format: cell-based; conditions: Homo sapiens, TC-32, Table 2, read-out: IC50 TC32
A549 = test: Cytotoxicity, resazurin fluorescence, A549; format: cell-based; conditions: Homo sapiens, read-out: GI50 A549
H460 = test: Cytotoxicity, resazurin fluorescence, H460; format: cell-based; conditions: Homo sapiens, read-out: GI50 H460
ES4 = test: Cytotoxicity, resazurin fluorescence, ES4; format: cell-based; conditions: Table 6; 72 hr; EWS cells
Hela = test: Cytotoxicity, resazurin fluorescence, Hela; format: cell-based; conditions: Homo sapiens, HeLa, read-out: GI50 Hela
A673 = test: Cytotoxicity, resazurin fluorescence, A673; format: cell-based; conditions: Homo sapiens, A673; Table 6; 72 hr; EWS cells
LNCap = test: Cytotoxicity, resazurin fluorescence, LNCap; format: cell-based; conditions: Homo sapiens, LNCaP, read-out: GI50 LNCap
Non EWS cells = test: Cytotoxicity, average over non-Ewing cell panel; format: cell-based; conditions: read-out: GI50 Average, Non EWS cells
Description: as §1

TC32 = test: Cytotoxicity, resazurin fluorescence, TC32; format: cell-based; conditions: Homo sapiens, TC-32, 72 h
Description: as §1

[4] = read-out: GI50 TC32, Table 6, EWS cells
[5] = HepG2, Table 6, 72 hr, hepatic origin
[6] = Table 6, non EWS cells, read-out: GI50 PC3
[7] = Table 6, 72 hr, lymphocyte origin
[8] = DU-145, Table 6, 72 hr, non EWS cells
[9] = PANC-1, Table 6, 72 hr, non EWS cells
[10] = A549, Table 6, 72 hr, non EWS cells
[11] = NCI-H460, Table 6, 72 hr, non EWS cells
[12] = Table 6, 72 hr, average of non EWS cells

SMILES	IC50 (PC3 [1])	GI50 (PC3 [2]; read-out: GI50 PC3, Table 5)	GI50 5838	GI50 (TC71)	clearance [3]	logP (log P)	GI50 (EWS cells)	GI50 (SK.ES1)	GI50 (ES3)	GI50 (RDES)	GI50 (ES8)	GI50 (ES7)	IC50 (TC32 cells)	GI50 (ES4)	GI50 (A673)	GI50 (TC32; read-out: GI50 TC32, Table 5)	GI50 (TC32; [4])	GI50 (HepG2; [5])	GI50 (PC3 [2]; [6])	GI50 (BL1395; [7])	also measured
CO[C@H](C(=NOCCNC(=O)c1cc2cc(F)ccc2[nH]1)[C@@H](O)[C@@H](C)O)[C@@H]1Cc2cc3cc(O[C@H]4C[C@@H](O[C@H]5C[C@@H](O)[C@H](O)[C@@H](C)O5)[C@H](O)[C@@H](C)O4)c(C)c(O)c3c(O)c2C(=O)[C@H]1O[C@H]1C[C@@H](O[C@H]2C[C@@H](O[C@H]3C[C@](C)(O)[C@H](O)[C@@H](C)O3)[C@@H](O)[C@@H](C)O2)[C@H](O)[C@@H](C)O1 [YL-B168]	19.5 nM	65 nM	40.2 nM	258 nM	0.717 mL/min/kg	1.62	66.9 nM	39.2 nM	56.7 nM	32.9 nM	68.8 nM	76.9 nM	2.15 nM	30.9 nM	34.5 nM	30 nM	30.3 nM				GI50 (HepG2; HepG2, 72 h): > 1000 nM; GI50 (PC3 [2]; read-out: GI50 PC3, Table 6, non EWS cells): 65.2 nM; GI50 (BL1395; Lymphocyte, 72 h): 49.9 nM; GI50 (DU145; DU-145, 72 h): 90.5 nM; GI50 (PANC1; PANC-1, 72 h): 105 nM; GI50 (A549; A549, 72 h): 358 nM; GI50 (H460; NCI-H460, 72 h): 116 nM; GI50 (Hela; 72 h): 470 nM; GI50 (LNCap; 72 h): 275 nM; GI50 (Non EWS cells; 72 h): 191 nM
COC(C(=NOCCNC(=O)c1cc2cc(Br)ccc2[nH]1)C(O)C(C)O)C1Cc2cc3cc(OC4CC(OC5CC(O)C(O)C(C)O5)C(O)C(C)O4)c(C)c(O)c3c(O)c2C(=O)C1OC1CC(OC2CC(OC3CC(C)(O)C(O)C(C)O3)C(O)C(C)O2)C(O)C(C)O1 (centres unmarked) [YL-B169]	20.6 nM	34 nM	30.2 nM	152 nM	0.467 mL/min/kg	2.37	43.8 nM	24.4 nM	38.4 nM	29.1 nM	68.7 nM	25.6 nM	1.16 nM	25.1 nM	26 nM	18 nM	18.4 nM	306 nM	34 nM	31.3 nM	GI50 (DU145; [8]): 49.9 nM; GI50 (PANC1; [9]): 62.1 nM; GI50 (A549; [10]): 558 nM; GI50 (H460; [11]): 78.7 nM; GI50 (Hela; Table 6, 72 hr, non EWS cells): 176 nM; GI50 (LNCap; Table 6, 72 hr, non EWS cells): 239 nM; GI50 (Non EWS cells; [12]): 171 nM
CO[C@H](C(=NOCCNC(=O)c1cc2cc(OC(F)(F)F)ccc2[nH]1)[C@@H](O)[C@@H](C)O)[C@@H]1Cc2cc3cc(O[C@H]4C[C@@H](O[C@H]5C[C@@H](O)[C@H](O)[C@@H](C)O5)[C@H](O)[C@@H](C)O4)c(C)c(O)c3c(O)c2C(=O)[C@H]1O[C@H]1C[C@@H](O[C@H]2C[C@@H](O[C@H]3C[C@](C)(O)[C@H](O)[C@@H](C)O3)[C@@H](O)[C@@H](C)O2)[C@H](O)[C@@H](C)O1 [YL-B171]	10.7 nM	49 nM	37.1 nM	19.5 nM		2.93	31.7 nM	35.4 nM	31.5 nM	32.7 nM	36.7 nM	26.7 nM	4.62 nM	20.4 nM	51 nM	26 nM	25.6 nM	202 nM	49.3 nM	51.5 nM	GI50 (DU145; [8]): 32.5 nM; GI50 (PANC1; [9]): 138 nM; GI50 (A549; [10]): 114 nM; GI50 (H460; [11]): 69.5 nM; GI50 (Hela; Table 6, 72 hr, non EWS cells): 105 nM; GI50 (LNCap; Table 6, 72 hr, non EWS cells): 117 nM; GI50 (Non EWS cells; [12]): 97.6 nM
COC(C(=NOCCNC(=O)c1[nH]c2ccc(O)cc2c1-c1ccc(Cl)cc1)C(O)C(C)O)C1Cc2cc3cc(OC4CC(OC5CC(O)C(O)C(C)O5)C(O)C(C)O4)c(C)c(O)c3c(O)c2C(=O)C1OC1CC(OC2CC(OC3CC(C)(O)C(O)C(C)O3)C(O)C(C)O2)C(O)C(C)O1 (centres unmarked) [YL-C120]	31.4 nM	66 nM			0.417 mL/min/kg	3.04							7.6 nM			36 nM					
CO[C@H](C(=NOCCNC(=O)c1[nH]c2ccc(Cl)cc2c1-c1cncnc1)[C@@H](O)[C@@H](C)O)[C@@H]1Cc2cc3cc(O[C@H]4C[C@@H](O[C@H]5C[C@@H](O)[C@H](O)[C@@H](C)O5)[C@H](O)[C@@H](C)O4)c(C)c(O)c3c(O)c2C(=O)[C@H]1O[C@H]1C[C@@H](O[C@H]2C[C@@H](O[C@H]3C[C@](C)(O)[C@H](O)[C@@H](C)O3)[C@@H](O)[C@@H](C)O2)[C@H](O)[C@@H](C)O1 [YL-C122]	124 nM	477 nM			0.683 mL/min/kg	1.73							18.5 nM			162 nM					
